The NIST ThermoML archive (doi:10.1016/j.jct.2015.10.004)
Several values for one entry are separate records, joined by “and”; a condition that tells them apart may be missing. Identical values can stand only once.

Assay: mn = molality of the nth substance listed, in mol/kg
Details: 101 kPa, Liquid; for electrical conductivity: Alternating current cell with electrodes; for mass density: Pycnometric method

C[C@H](N)C(=O)N[C@@H](CCC(N)=O)C(=O)O [L-alanyl-L-glutamine] + O
electrical conductivity [S/m]
Details	293.15 K	298.15 K	303.15 K	308.15 K	313.15 K
m1 = 0.05	0.0034	0.00364	0.00391	0.00427	0.00463
m1 = 0.1	0.00555	0.00599	0.00648	0.00707	0.00792
m1 = 0.15	0.00766	0.0084	0.009	0.00985	0.0112
m1 = 0.2	0.0107	0.0115	0.0124	0.0138	0.0153

CC(C)C[C@H](NC(=O)CN)C(=O)O [glycyl-L-leucine] + O
electrical conductivity
Details	293.15 K	298.15 K	303.15 K	308.15 K	313.15 K
m1 = 0.05	0.00321 S/m	0.00345 S/m	0.00373 S/m and 0.00372 S/m	0.00406 S/m	0.00455 S/m
m1 = 0.1	0.00533 S/m	0.0058 S/m	0.00634 S/m	0.00703 S/m	0.00781 S/m
m1 = 0.15	0.0074 S/m	0.00809 S/m	0.00889 S/m	0.00987 S/m	0.011 S/m
m1 = 0.2	0.0104 S/m	0.0113 S/m	0.0124 S/m	0.0137 S/m	0.0152 S/m

CC(C)[C@H](NC(=O)CN)C(=O)O [glycyl-L-valine] + O
electrical conductivity [S/m]
Details	293.15 K	298.15 K	303.15 K	308.15 K	313.15 K
m1 = 0.05	0.00323	0.00347	0.00374	0.00407	0.00456
m1 = 0.1	0.00535	0.00582	0.00636	0.00705	0.00783
m1 = 0.15	0.00742	0.00811	0.00891	0.00989	0.011
m1 = 0.2	0.0104	0.0114	0.0124	0.0137	0.0152

NCC(=O)N[C@@H](CCC(N)=O)C(=O)O [glycyl-l-glutamine] + O
electrical conductivity
Details	293.15 K	298.15 K	303.15 K	308.15 K	313.15 K
m1 = 0.05	0.00342 S/m	0.00366 S/m	0.00392 S/m	0.00428 S/m	0.00464 S/m
m1 = 0.1	0.00556 S/m	0.006 S/m	0.00649 S/m	0.00708 S/m	0.00793 S/m and 0.00773 S/m
m1 = 0.15	0.00768 S/m	0.00832 S/m	0.00902 S/m	0.00999 S/m	0.0108 S/m and 0.0112 S/m
m1 = 0.2	0.0107 S/m	0.0116 S/m	0.0125 S/m	0.0139 S/m	0.0148 S/m and 0.0158 S/m

NCC(=O)NCC(=O)O [glycylglycine] + O
electrical conductivity [S/m]
Details	293.15 K	298.15 K	303.15 K	308.15 K	313.15 K
m1 = 0.05	0.00328	0.00355	0.00385	0.00429	0.00474
m1 = 0.1	0.00543	0.00593	0.00652	0.00724	0.00805
m1 = 0.15	0.00745	0.00818	0.00904	0.0101	0.0113
m1 = 0.2	0.0106	0.0115	0.0125	0.014	0.0155

O=S(=O)([O-])C(F)(F)C(F)(F)C(F)(F)C(F)(F)F.[K+] [potassium perfluorobutanesulfonate] + O
Details	electrical conductivity, 293.15 K [S/m]	electrical conductivity, 298.15 K [S/m]	electrical conductivity, 303.15 K [S/m]	electrical conductivity, 308.15 K [S/m]	electrical conductivity, 313.15 K [S/m]	mass density, 288.15 K [kg/m3]	mass density, 293.15 K [kg/m3]	mass density, 298.15 K [kg/m3]	mass density, 303.15 K
m1 = 0.0003	0.00278	0.00312	0.00344	0.00378	0.00413	–	–	–	–
m1 = 0.00054	0.00499	0.00562	0.00619	0.00681	0.00742	–	–	–	–
m1 = 0.00087	0.00784	0.00882	0.00972	0.0107	0.0117	–	–	–	–
m1 = 0.00125	0.0111	0.0125	0.0138	0.0152	0.0166	–	–	–	–
m1 = 0.00164	0.0145	0.0163	0.018	0.0197	–	–	–	–	–
m1 = 0.00207	0.0181	0.0203	0.0226	0.0248	0.0271	–	–	–	–
m1 = 0.00259	0.0227	0.0253	0.0279	0.0307	0.0335	–	–	–	–
m1 = 0.00315	0.0273	0.0304	0.0336	0.0369	0.0403	–	–	–	–
m1 = 0.00374	0.0322	0.0357	0.0395	0.0434	0.0474	–	–	–	–
m1 = 0.00437	0.0372	0.0415	0.0457	0.0504	0.0549	–	–	–	–
m1 = 0.00501	0.0423	0.0471	0.0521	0.0572	0.0625	–	–	–	–
m1 = 0.00571	0.0478	0.0532	0.0588	0.0646	0.0705	–	–	–	–
m1 = 0.00646	0.0537	0.0596	0.0658	0.0725	0.0792	–	–	–	–
m1 = 0.00723	0.0596	0.0662	0.0732	0.0805	0.0878	–	–	–	–
m1 = 0.00809	0.0661	0.0734	0.081	–	0.0976	–	–	–	–
m1 = 0.00904	0.0731	0.0814	–	–	–	–	–	–	–
m1 = 0.04	–	–	–	–	–	1006.5	1005.6	1004.3	1002.7 kg/m3 and 1002.8 kg/m3

O=S(=O)([O-])C(F)(F)C(F)(F)C(F)(F)C(F)(F)C(F)(F)C(F)(F)C(F)(F)C(F)(F)F.[K+] [potassium perfluorooctanesulfonate] + O
Details	electrical conductivity, 293.15 K [S/m]	electrical conductivity, 298.15 K [S/m]	electrical conductivity, 303.15 K [S/m]	electrical conductivity, 308.15 K [S/m]	electrical conductivity, 313.15 K [S/m]	mass density, 288.15 K [kg/m3]	mass density, 293.15 K [kg/m3]	mass density, 298.15 K	mass density, 303.15 K
m1 = 0.0003	–	0.00301	0.00325	0.00359	0.00392	–	–	–	–
m1 = 0.00033	0.00284	0.00326	0.00353	0.0039	0.00427	–	–	–	–
m1 = 0.00036	0.00306	0.00352	0.00381	0.0042	0.0046	–	–	–	–
m1 = 0.00039	0.00326	0.00376	0.00407	0.00449	0.00492	–	–	–	–
m1 = 0.00041	0.00347	0.00399	0.00432	0.00478	0.00522	–	–	–	–
m1 = 0.00044	0.00366	0.00421	0.00456	0.00504	0.0055	–	–	–	–
m1 = 0.00046	0.00384	0.00444	0.00481	0.00531	0.0058	–	–	–	–
m1 = 0.00049	0.00404	0.00466	0.00506	0.0056	0.0061	–	–	–	–
m1 = 0.0005	–	–	–	–	–	999.3	998.3	997.1 kg/m3 and 997.2 kg/m3	995.7 kg/m3 and 995.8 kg/m3
m1 = 0.00052	0.00427	0.00492	0.00534	0.00592	0.00644	–	–	–	–
m1 = 0.00054	0.00447	0.00516	0.00559	0.00621	0.00673	–	–	–	–
m1 = 0.00057	0.00468	0.00541	0.00586	0.0065	0.00706	–	–	–	–
m1 = 0.0006	0.0049	0.00564	0.00612	0.00679	0.00737	–	–	–	–
m1 = 0.00062	0.0051	0.00589	0.00638	0.00709	0.00769	–	–	–	–
m1 = 0.00066	0.00534	0.00616	0.00667	0.00742	0.00805	–	–	–	–
m1 = 0.00069	0.00559	0.00643	0.00697	0.00775	0.00843	–	–	–	–
m1 = 0.00071	0.0058	0.00669	0.00724	0.00806	0.00875	–	–	–	–
m1 = 0.00075	–	0.00698	0.00756	0.00841	0.00914	–	–	–	–
m1 = 0.00078	–	0.00721	0.00782	0.00871	–	–	–	–	–
